Entries after “also recorded” stand apart in the source; their conditions may differ. Read-outs that look alike come from different tables or passages of the source.
Legend:
Format in all cases: cell-based, human
A549 cells [1] = experiment: DMR modulation of marker-induced responses (two-step assay) in A549 cells; conditions: for modulation of the pinacidil response in A549 cells: compound pretreatment ~1 hr (10 micromolar), then pinacidil 10 micromolar; for modulation of the forskolin response (P-DMR) in A549 cells / modulation of the histamine response (early and late P-DMR) in A549 cells: inhibitor 10 micromolar; for modulation of the forskolin response (P-DMR) in A549 cells: forskolin 16 micromolar; for modulation of the histamine response (early and late P-DMR) in A549 cells: histamine 10 micromolar
Protocol: (§1) The index was generated after normalizing each marker-induced DMR signal in the presence of the inhibitor to its corresponding signal in the absence of the inhibitor. The percentage of modulation for each marker by the inhibitor was plotted as a function of the marker. As shown from left to right in a sequential order, the DMR events used for the basis of the modulation percentage calculation are: the N-DMR (50 min after stimulation) for pinacidil in A549, the P-DMR (50 min after stimulation) for forskolin in A549, the early P-DMR event (˜10 min after histamine stimulation) and the late P-DMR event (˜30 min after histamine stimulation) for histamine in A549, and the early P-DMR event (˜5 min after EGF stimulation) and the subsequent N-DMR event (˜30 min after EGF stimulation) for EGF in A431 cells. In all cases, the amplitudes of respective DMR events were used as the basis to calculate the percentages of modulation by the PI3K inhibitors. The same procedure was used to generate FIGS. 8 to 14.
(§2) Cells were typically grown using ˜1 to 2×10^4 cells per well at passage 3 to 15 suspended in 50 μl of the corresponding culture medium in the biosensor microplate, and were cultured at 37° C. under air/5% CO2 for ˜1 day. Except for A431 which underwent one day culture followed by one starvation in serum free medium, all other cells were directly assayed without starvation. The confluency for all cells at the time of assays was ˜95% to 100%.
(§3) For biosensor cellular assays, molecule solutions were made by diluting the stored concentrated solutions with the HBSS (1× Hanks balanced salt solution, plus 20 mM Hepes, pH 7.1), and transferred into a 384 well polypropylene molecule storage plate to prepare a molecule source plate. Both molecule and marker source plates were made separately when a two-step assay was performed. In parallel, the cells were washed twice with the HBSS and maintained in 30 μl of the HBSS to prepare a cell assay plate. Both the cell assay plate and the molecule and marker source plate(s) were then incubated in the hotel of the reader system. After ˜1 hr of incubation the baseline wavelengths of all biosensors in the cell assay microplate were recorded and normalized to zero. Afterwards, a 2 to 10 minute continuous recording was carried out to establish a baseline, and to ensure that the cells reached a steady state. Cellular responses were then triggered by pipetting 10 μl of the marker solutions into the cell assay plate using the on-board liquid handler.
(§4) To study the influence of molecules on a marker-induced response, a second stimulation with the marker at a fixed dose (typically at EC80 or EC100) was applied. The resonant wavelengths of all biosensors in the microplate were normalized again to establish a second baseline, right before the second stimulation. The two stimulations were usually separated by ˜1 hr.
(§5) All studies were carried out at a controlled temperature (28° C.). At least two independent sets of experiments, each with at least three replicates, were performed.

A431 cells = experiment: DMR modulation of the EGF-induced response in quiescent A431 cells
Protocol: as §1, §2, §3, §4, §5

A549 cells [2] = experiment: Label-free RWG (Epic) biosensor DMR assay, agonism mode, A549 cells; conditions: for EC50: Homo sapiens; for maximal amplitude / maximal response of the N-DMR signal: n=4
Protocol: as §2
(§6) Epic® beta version wavelength interrogation system (Corning Inc., Corning, N.Y.) was used for whole cell sensing. This system consists of a temperature-control unit, an optical detection unit, and an on-board liquid handling unit with robotics. The detection unit is centered on integrated fiber optics, and enables kinetic measures of cellular responses with a time interval of ˜15 sec.
as §3, §5

A549 and A431 cells = experiment: DMR index against panels of markers across A549 and A431 cells, compared with LY294002; conditions: markers pinacidil, forskolin, histamine (A549), EGF (A431)
Protocol: as §1
Optical biosensors such as RWG biosensor measure dynamic mass redistribution (DMR) signals of cells upon stimulation. A DMR index contains the primary DMR profile or signal of a chemical acting on a panel of live cells, and the modulation index of the chemical against panels of markers across the panel of cells, a panel of markers for each cell line. […]

HepG2 cells [3] = experiment: DMR modulation of the ODN2006-induced response in HepG2 cells; conditions: inhibitor 10 micromolar, ODN2006 500 nM
Protocol: as §2
as §3, with “Cellular responses were then triggered by pipetting 10 μl of the marker solutions into the cell assay plate using the on-board liquid handler.” left out

HepG2 cells [4] = experiment: Label-free RWG biosensor DMR assay, agonism mode, HepG2 cells; conditions: primary profile
Protocol: as §2, §6
For biosensor cellular assays, molecule solutions were made by diluting the stored concentrated solutions with the HBSS (1× Hanks balanced salt solution, plus 20 mM Hepes, pH 7.1), and transferred into a 384 well polypropylene molecule storage plate to prepare a molecule source plate. […] Both the cell assay plate and the molecule and marker source plate(s) were then incubated in the hotel of the reader system. After ˜1 hr of incubation the baseline wavelengths of all biosensors in the cell assay microplate were recorded and normalized to zero. […]

A549 and HepG2 cells = experiment: Biosensor index against panel of cells/markers (A549 and HepG2), compared with Y-27632
From the text: It is well known that many kinas inhibitors often display polypharmacology (i.e., many kinase inhibitors can modulate the activity of multi-targets in a cell). In addition, drugs including kinase inhibitors often display cell- or tissue-dependent phenotypic pharmacology, due to the many cellular factors including post-transcriptional modifications, compartmentalization of signaling cascades, alteration of key gene products in the pathway, receptor oligomerization, and constitutive receptor activity. […] Thus, the primary modes of action of a drug or drug candidate molecule, including ROCK inhibitors, are a sum of at least several types of pharmacology—polypharmacology, phenotypic pharmacology and systems (integrative) pharmacology. To correctly detect the phenotypic pharmacology of a ROCK inhibitor that acts via the inhibition of ROCK activity in live cell, one needs a panel of cells as well as panels of markers using the biosensor cellular assays. Thus, a ROCK inhibitor responsive cell line, A549, and a ROCK inhibitor unresponsive cell line, HepG2, were chosen as model systems. […]

[5] = ~30 min after histamine stimulation
[6] = inhibitor 10 micromolar, EGF 32 nM

Compound | modulation of the pinacidil response in A549 cells (A549 cells [1]) | modulation of the forskolin response (P-DMR) in A549 cells (A549 cells [1]) | modulation of the histamine response (early and late P-DMR) in A549 cells (A549 cells [1]) | modulation of the P-DMR event of the EGF response in A431 cells (A431 cells; [6]) | other results
O=C1NC(=O)C(=Cc2ccc3nccnc3c2)S1 [PI3Kγ inhibitor, 5-quinoxalin-6-ylmethylene-thiazolindine-2,4-dione] | little or not modulation | significant potentiation | significant potentiation | small attenuation | modulation of the late P-DMR event of the histamine response in A549 cells (A549 cells [1]; [5]): moderate potentiation
CC(N/C(=N\C#N)Nc1ccncc1)C(C)(C)C (stereo not drawn) [pinacidil] |  |  |  |  | EC50 (A549 cells [2]; stimulation with pinacidil, read-out: EC50 of the biosensor signal): ~5 µM
c1ccc2c(-c3ccncc3)c[nH]c2c1 [Rho kinase inhibitor III Rockout] | complete or significant attenuation |  |  |  | 
O=c1cc(N2CCNCC2)oc2c(-c3ccccc3)cccc12 [LY303511] |  |  |  |  | type of DMR index compared with the PI3K inhibitor LY294002 (A549 and A431 cells): completely distinct type of DMR index
O=S(=O)(c1cccc2cnccc12)N1CCCNCC1 [HA-1077] | complete or significant attenuation |  |  |  | 
NC(N)=NCCNS(=O)(=O)c1cccc2cnccc12 [HA-1004] | complete or significant attenuation |  |  |  | 
CC(=O)c1ccc(N2CCOCC2)cc1O [DNA-PK inhibitor III, 1-(2-Hydroxy-4-morpholin-4-yl-phenyl)ethanone] | little or not modulation | significant potentiation | significant potentiation | small attenuation | 
Oc1ccc(C=Cc2cc(O)cc(O)c2)cc1 [resveratrol] | little or not modulation | significant potentiation | significant potentiation | small attenuation | 
COC[C@H]1OC(=O)c2coc3c2[C@@]1(C)C1=C(C3=O)[C@@H]2CCC(=O)[C@@]2(C)C[C@H]1OC(C)=O [wortmannin] |  |  |  |  | EC50 (A549 cells [2]; 50 min, N-DMR amplitudes ~50 min after stimulation, n=4, read-out: EC50 of the DMR signal): 0.0727 ± 0.0034 µM; maximal amplitude / maximal response of the N-DMR signal (A549 cells [2]): ~700 picometers
CC1CNCCN1S(=O)(=O)c1cccc2cnccc12 (stereo not drawn) [H-7] | complete or significant attenuation |  |  |  | 
O=c1c(O)c(-c2ccc(O)c(O)c2)oc2cc(O)cc(O)c12 [quercetin] | little or not modulation | potentiated; also recorded: significant potentiation | potentiated; also recorded: significant potentiation | small attenuation | modulation index score, forskolin (A549 cells [1]; score +1 per 10% modulation): 2; modulation index score, histamine early P-DMR (A549 cells [1]; score +1 per 10% modulation): 4; modulation index score, histamine late P-DMR (A549 cells [1]; score +1 per 10% modulation): 9; modulation index score, pinacidil (A549 cells [1]; score +1 per 10% positive modulation, opposite for negative): −1; modulation of the ODN2006 DMR signal in HepG2 cells (HepG2 cells [3]): slightly attenuated; modulation of the N-DMR event of the EGF response in A431 cells (A431 cells; [6]): attenuated; modulation index score, EGF N-DMR (A431 cells; score +1 per 10% modulation): −5; modulation index score, EGF P-DMR (A431 cells; score +1 per 10% modulation): 0
NCCNS(=O)(=O)c1cccc2cnccc12 [H-9] | complete or significant attenuation |  |  |  | 
O=c1cc(N2CCOCC2)oc2c1ccc1ccccc12 [DNA-PK inhibitor II, 2-(Morpholin-4-yl)-benzo[h]chromen-4-one] | little or not modulation | significant potentiation | significant potentiation | small attenuation | 
Rho kinase inhibitor IV | complete or significant attenuation |  |  |  | 
Oc1cccc(-c2nc(N3CCOCC3)c3oc4ncccc4c3n2)c1 [PI-103] | little or not modulation | significant potentiation | significant potentiation | small attenuation | 
CNCCNS(=O)(=O)c1cccc2cnccc12 [H-8] | complete or significant attenuation |  |  |  | 
Cc1cc(C(C)Nc2ccccc2)c2nc(N3CCOCC3)cc(=O)n2c1 (racemic) [PI3Kβ inhibitor II, (+/−)-7-Methyl-2-(morpholin-4-yl)-9-(1-phenylaminoethyl)-pyridol[1,2-a]-pyrimidin-4-one] |  |  |  | significantly attenuated | modulation of the late P-DMR event of the histamine response in A549 cells (A549 cells [1]; [5]): slightly suppression
O=c1cc(N2CCOCC2)oc2c(-c3ccccc3)cccc12 [LY294002] |  |  |  |  | modulation of the pinacidil response (N-DMR) (A549 cells [1]; N-DMR 50 min after stimulation, marker signal with inhibitor normalized to signal without, FIG. 7C): −9%; modulation of the forskolin response (P-DMR) (A549 cells [1]; P-DMR 50 min after stimulation, FIG. 7C): +33%; modulation of the histamine response, early P-DMR (A549 cells [1]; ~10 min after histamine stimulation, FIG. 7C): +41%; modulation of the histamine response, late P-DMR (A549 cells [1]; ~30 min after histamine stimulation, FIG. 7C): +90%; EC50 (A549 cells [2]; 50 min, N-DMR amplitudes ~50 min after stimulation, n=4, read-out: EC50 of the N-DMR signal): 14.7 ± 1.5 µM; maximal amplitude / maximal response of the N-DMR signal (A549 cells [2]): ~400 picometers
CDK1/2 inhibitor III |  |  |  |  | DMR (biosensor) signal of the compound in HepG2 cells (HepG2 cells [4]): small decaying signal; modulation of the biosensor signals of the markers in the panel (A549 and HepG2 cells; pinacidil, poly(IC), PMA, SLIGKV-amide, forskolin, histamine (A549), ODN2006 (HepG2)): attenuated the biosensor signals of most of markers; biosensor index compared with the Y-27632 biosensor index (A549 and HepG2 cells; primary profiles in A549 and HepG2 and modulation index against the panel of markers): quite distinct biosensor index; DMR (biosensor) signal of the compound in A549 cells (A549 cells [2]; primary profile): negative DMR signal
O=S(=O)(NCCNC/C=C/c1ccc(Br)cc1)c1cccc2cnccc12 [H-89] | complete or significant attenuation |  |  |  | 

Source: patent US20120289432A1, “PI3K MODULATORS, RHO KINASE MODULATORS AND METHODS OF IDENTIFYING AND USING SAME” (Corning Incorporated, priority 2009, published 2012)
